Where a name gives a salt, the structure may show the parent alone. Read-outs that look alike come from different tables or passages of the source.
Assays:
HO-1 = HO-1 expression by ELISA in LX-2 cell lysates; assay type: cell-based, human; details: for fold induction at 1 µM / fold induction at 5 µM / fold induction at 10 µM: Homo sapiens, LX-2, 24 h; for fold induction at 1 µM / fold induction at 5 µM / fold induction at 10 µM / Fold Induction (ELISA): 24 h, LX-2 cells lysate, vs control group, mean ± SD of triplicate; for potency as HO-1 inducers relative to DMF: LX-2 cells, more active than DMF
Description: (§1) LX 2 cell lines were bought from American Type Culture Collection (Rockville, MD, USA). Upon defrosting, the cells were seeded in 6-well plates and maintained in a medium DMEM low glucose supplemented with 10% FBS and a 1% Penicillin and Streptomycin solution. The obtained cell cultures were left at 37 °C in an incubator with 5% CO2, and the culture medium was changed after 3 or 4 days. Sub-confluent cells were treated over a period of 24 h using various concentrations (1, 5, 10 µM) of compounds 1a–o, 2a–c, and dimethyl fumarate (DMF) previously dissolved in DMSO. Control groups were treated with only DMSO.
The commercially available ELISA kit (ADI-EKS-800, Enzo Life Sci) was used to measure heme oxygenase […] (HO-1) protein concentration in LX2 cellular lysates. The test was performed in agreement with the protocol reported by the manufacturer. Absorbance at λ = 450 nm was measured and the concentration of HO-1 was calculated from a standard curve previously created using purified HO-1 protein. Results were expressed as folds of change compared to the control group. Individual measurement was performed in triplicate and data were reported as averages.

LX-2 cells [1] = assay: MTT assay of cell viability; assay type: cell-based, human
Description: as §1
An MTT assay was performed to monitor cell viability, measuring the conversion of tetrazolium salt to yield colored formazan, the amount of which was proportional to the number of living cells. Regarding this assay, LX2 cells were seeded at a concentration of […] cells per well, in a 96-multiwell flat-bottomed 200 μL microplate. The optical density of each well was measured with a microplate spectrophotometer reader (Synergy HT, BioTek) at λ = 570 nm.

LX-2 cells [2] = assay: ROS assay with DCFH-DA, palmitic acid (PA)-mediated ROS production; assay type: cell-based, human; details: 24 h; for ROS production mediated by palmitic acid (PA), co-treatment: 5 μM compound + PA 300 μM, p < 0.05 vs. PA
Description: Determination of the reactive oxygen species (ROS) was performed using a fluorescent probe 2′,7′-dichlorofluorescein diacetate (DCFH-DA). The fluorescence (corresponding to the oxidized radical species 2′,7′-dichlorofluorescein, DCF) was monitored spectrofluorometrically (excitation, λ = 488 nm; emission, λ = 525 nm). Results were reported as fluorescence intensity. Concerning the experiments, the cells were seeded in 96-well plates at a density of 1 × 10^4 cells per well. Then, the cells were treated for 24 h with DMEM containing a no cytotoxic concentration of palmitic acid (PA) 300 μM in the presence or absence of compound 1b, 1l, 1m and dimethyl fumarate (DMF) (5 μM).

| melting point | Compound | fold induction at 1 µM (HO-1; 1 μM) | fold induction at 5 µM (HO-1; 5 μM) | fold induction at 10 µM (HO-1; 10 μM) | IC50 (LX-2 cells [1]; Homo sapiens) | also measured |
| --- | --- | --- | --- | --- | --- | --- |
| 230 to 232 °C | N#Cc1ccc(OC(=O)/C=C/C(=O)Oc2ccc(C#N)cc2)cc1 [Compound 1e, (2E)-2-Butenedioic acid, 1,4-bis(4-cyanophenyl) ester] | 3.68 ± 0.21 | 5.22 ± 0.11 | 6.5 ± 0.17 | > 50 µM | – |
| – | (E)-N, N’-Diphenylpropyl-2-butenediamide [Compound 1o] | – | – | – | – | Fold Induction (ELISA) (HO-1; 1 μM): 4.85 ± 0.13 fold; Fold Induction (ELISA) (HO-1; 5 μM): 6.93 ± 0.23 fold; Fold Induction (ELISA) (HO-1; 10 μM): 6.30 ± 0.21 fold; IC50 (LX-2 cells [1]): > 50 µM |
| 160 to 161 °C | Cc1ccc(OC(=O)/C=C/C(=O)Oc2ccc(C)cc2)cc1 [Compound 1f] | 1.82 ± 0.09 | 3.94 ± 0.13 | 3.76 ± 0.15 | > 50 µM | – |
| 332 to 333 °C | O=C(/C=C/C(=O)Nc1ccccc1)Nc1ccccc1 [Compound 1l, (E)-N, N’-Diphenyl-2-butenediamide] | 6.9 ± 0.14 | 9.74 ± 0.25 | 10.2 ± 0.29 | > 50 µM | ROS production mediated by palmitic acid (PA), co-treatment (LX-2 cells [2]): significantly reversed the effect mediated by PA; potency as HO-1 inducers relative to DMF (HO-1): 2–3 fold |
| – | O=C(/C=C/C(=O)OCCCc1ccccc1)OCCCc1ccccc1 [Compound 1k, (2E)-2-Butenedioic acid, 1,4-bis(phenylpropyl) ester] | 2.26 ± 0.09 | 5.98 ± 0.16 | 9.55 ± 0.27 | > 50 µM | – |
| – | CCCCCCCCCCCCCCCC(=O)O [PA, palmitic acid, reference compound] | – | – | – | – | ROS production, PA alone (LX-2 cells [2]; PA 300 μM, p < 0.05 vs. control): increased ROS production |
| 178 to 179 °C | O=C(/C=C/C(=O)Oc1ccc(Cl)cc1)Oc1ccc(Cl)cc1 [Compound 1b, (2E)-2-Butenedioic acid, 1,4-bis(4-chlorophenyl) ester] | 8.81 ± 0.2 | 8.19 ± 0.21 | 11.7 ± 0.41 | > 50 µM | ROS production mediated by palmitic acid (PA), co-treatment (LX-2 cells [2]): significantly reversed the effect mediated by PA; potency as HO-1 inducers relative to DMF (HO-1): 2–3 fold |
| 44 to 45 °C | COC(=O)/C=C/C(=O)OCCc1ccccc1 [Compound 2c, (2E)-2-Butenedioic acid, methyl phenylethyl ester] | – | – | – | > 50 µM | – |
| 54 to 55 °C | COC(=O)/C=C/C(=O)Oc1ccccc1 [Compound 2a, (2E)-2-Butenedioic Acid, Methyl Phenyl Ester] | – | – | – | > 50 µM | – |
| 50 to 51 °C | COC(=O)/C=C/C(=O)OCc1ccccc1 [Compound 2b, (2E)-2-Butenedioic acid, methyl phenylmethyl ester] | – | – | 0.28 | > 50 µM | – |
| 266 to 267 °C | O=C(/C=C/C(=O)Oc1ccc(I)cc1)Oc1ccc(I)cc1 [Compound 1c, (2E)-2-Butenedioic acid, 1,4-bis(4-iodophenyl) ester] | 6.02 ± 0.13 | 7.7 ± 0.19 | 8.13 ± 0.23 | 20.8 ± 1.5 µM | – |
| 59 to 61 °C | O=C(/C=C/C(=O)OCc1ccccc1)OCc1ccccc1 [Compound 1i, (2E)-2-Butenedioic acid, 1,4-bis(phenylmethyl) ester] | 3.4 ± 0.18 | 5.86 ± 0.19 | 7.34 ± 0.28 | 17.7 ± 1.3 µM | – |
| 164 to 165 °C | O=C(/C=C/C(=O)Oc1ccccc1)Oc1ccccc1 [Compound 1a, (2E)-2-Butenedioic acid, 1,4-diphenyl ester] | 6.65 ± 0.15 | 7.93 ± 0.18 | 8.16 ± 0.32 | > 50 µM | – |
| – | O=C(/C=C/C(=O)NCc1ccccc1)NCc1ccccc1 [Compound 1m, (E)-N, N’-Diphenylmethyl-2-butenediamide] | > 7 | > 14 | 13.8 ± 0.35 | 18.6 ± 1.4 µM | ROS production mediated by palmitic acid (PA), co-treatment (LX-2 cells [2]): significantly reversed the effect mediated by PA; Fold Induction (ELISA) (HO-1; 5 μM, 5 µM): 14.15 ± 0.34 fold; potency as HO-1 inducers relative to DMF (HO-1): 2–3 fold |
| – | (E)-N, N’-Diphenylethyl-2-butenediamide [Compound 1n] | – | – | – | – | Fold Induction (ELISA) (HO-1; 1 μM): 5.82 ± 0.12 fold; Fold Induction (ELISA) (HO-1; 5 μM): 7.52 ± 0.21 fold; Fold Induction (ELISA) (HO-1; 10 μM): 8.40 ± 0.38 fold; IC50 (LX-2 cells [1]): > 50 µM |
| 180 to 181 °C | COc1ccc(OC(=O)/C=C/C(=O)Oc2ccc(OC)cc2)cc1 [Compound 1g, (2E)-2-Butenedioic acid, 1,4-bis(4-methoxyphenyl) ester] | 0.3 ± 0.01 | 0.76 ± 0.02 | 0.9 ± 0.06 | 22.3 ± 1.8 µM | – |
| 122 to 123 °C | O=C(/C=C/C(=O)Oc1ccc(C(F)(F)F)cc1)Oc1ccc(C(F)(F)F)cc1 [Compound 1d, (2E)-2-Butenedioic acid, 1,4-bis(4-trifluoromethyphenyl) ester] | – | 1.4 ± 0.03 | 0.68 ± 0.02 | > 50 µM | – |
| 77 to 79 °C | O=C(/C=C/C(=O)OCCc1ccccc1)OCCc1ccccc1 [Compound 1j, (2E)-2-Butenedioic acid, 1,4-bis(phenylethyl) ester] | 2.29 ± 0.1 | 5.91 ± 0.17 | 8.47 ± 0.33 | > 50 µM | – |
| – | COC(=O)/C=C/C(=O)OC [DMF, dimethyl fumarate] | 2.78 ± 0.09 | 7.63 ± 0.31 | 8.3 ± 0.23 | > 50 µM | ROS production mediated by palmitic acid (PA), co-treatment (LX-2 cells [2]): significantly reversed the effect mediated by PA |
| – | O=C(/C=C/C(=O)Oc1ccccc1C(=O)O)Oc1ccccc1C(=O)O [Compound 1h, (2E)-2-Butenedioic acid, 1,4-bis(2-carboxyphenyl) ester] | 6.37 ± 0.22 | 7.45 ± 0.21 | 9.95 ± 0.19 | > 50 µM | – |
